Measured values: PubChem BioAssay (NCI)
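Results reflect a 48-hour exposure of cells in 96-well plates to compound at five concentrations. TGI marks complete inhibition of growth.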

What was measured:
Assay in all cases: DTP human tumour cell line panel, 48 h
[1] = test system: T-47D breast
[2] = test system: EKVX NSCLC
[3] = test system: M19-MEL melanoma
[4] = test system: CAKI-1 renal
[5] = test system: LXFL 529 NSCLC
[6] = test system: SN12C renal
[7] = test system: KM12 colon
[8] = test system: XF 498 CNS
[9] = test system: DMS 114 small cell lung
[10] = test system: ACHN renal
[11] = test system: MALME-3M melanoma
[12] = test system: SK-MEL-28 melanoma
[13] = test system: UACC-62 melanoma
[14] = test system: UACC-257 melanoma
[15] = test system: TK-10 renal
[16] = test system: HT29 colon
[17] = test system: 786-0 renal
[18] = test system: SNB-75 CNS
[19] = test system: MDA-MB-231 breast
[20] = test system: U251 CNS
[21] = test system: MOLT-4 leukemia
[22] = test system: LOX IMVI melanoma
[23] = test system: HCC-2998 colon
[24] = test system: SK-MEL-5 melanoma
[25] = test system: SF-295 CNS
[26] = test system: PC-3 prostate
[27] = test system: OVCAR-5 ovarian
[28] = test system: A498 renal
[29] = test system: NCI/ADR-RES ovarian
[30] = test system: COLO 205 colon
[31] = test system: IGROV1 ovarian
[32] = test system: OVCAR-4 ovarian
[33] = test system: HCT-116 colon
[34] = test system: MDA-MB-435
[35] = test system: HOP-92 NSCLC
[36] = test system: A549 NSCLC
[37] = test system: SNB-78 CNS
[38] = test system: MDA-N
[39] = test system: M14 melanoma
[40] = test system: HL-60(TB) leukemia
[41] = test system: UO-31 renal
[42] = test system: SK-MEL-2 melanoma
[43] = test system: NCI-H522 lung
[44] = test system: DMS 273 small cell lung
[45] = test system: RPMI-8226 leukemia
[46] = test system: KM20L2 colon
[47] = test system: NCI-H226 lung
[48] = test system: SF-268 CNS
[49] = test system: SF-539 CNS
[50] = test system: HOP-62 NSCLC
[51] = test system: OVCAR-3 ovarian
[52] = test system: NCI-H460 lung
[53] = test system: SNB-19 CNS
[54] = test system: HS 578T breast
[55] = test system: K-562 leukemia
[56] = test system: SW-620 colon
[57] = test system: HOP-18 NSCLC
[58] = test system: RXF 393 renal
[59] = test system: CCRF-CEM leukemia
[60] = test system: MCF7 breast
[61] = test system: SK-OV-3 ovarian
[62] = test system: BT-549 breast
[63] = test system: NCI-H23 lung
[64] = test system: DU-145 prostate
[65] = test system: SR leukemia
[66] = test system: OVCAR-8 ovarian
[67] = test system: HCT-15 colon
[68] = test system: DLD-1 colon
[69] = test system: RXF-631 renal

SMILES: CC1OC(=O)C2CC3CCCCC3C(/C=C/C3CCCC(C)N3C)C12 (stereo unspecified)
- TGI [1]: > 100 µM
- TGI [2]: > 100 µM
- TGI [3]: > 100 µM
- TGI [4]: > 100 µM
- TGI [5]: > 100 µM
- TGI [6]: > 100 µM
- TGI [7]: > 100 µM
- TGI [8]: > 100 µM
- TGI [9]: > 100 µM
- TGI [10]: > 100 µM
- TGI [11]: > 100 µM
- TGI [12]: > 100 µM
- TGI [13]: > 100 µM
- TGI [14]: > 100 µM
- TGI [15]: > 100 µM
- TGI [16]: > 100 µM
- TGI [17]: > 100 µM
- TGI [18]: > 100 µM
- TGI [19]: > 100 µM
- TGI [20]: > 100 µM
- TGI [21]: > 100 µM
- TGI [22]: > 100 µM
- TGI [23]: > 100 µM
- TGI [24]: > 100 µM
- TGI [25]: > 68.1 µM
- TGI [26]: > 100 µM
- TGI [27]: > 100 µM
- TGI [28]: > 100 µM
- TGI [29]: > 100 µM
- TGI [30]: > 100 µM
- TGI [31]: > 100 µM
- TGI [32]: > 100 µM
- TGI [33]: > 100 µM
- TGI [34]: > 100 µM
- TGI [35]: > 100 µM
- TGI [36]: > 100 µM
- TGI [37]: > 52.8 µM
- TGI [38]: > 100 µM
- TGI [39]: > 100 µM
- TGI [40]: > 100 µM
- TGI [41]: > 100 µM
- TGI [42]: > 100 µM
- TGI [43]: > 100 µM
- TGI [44]: > 100 µM
- TGI [45]: > 100 µM
- TGI [46]: > 100 µM
- TGI [47]: > 100 µM
- TGI [48]: > 100 µM
- TGI [49]: > 100 µM
- TGI [50]: > 100 µM
- TGI [51]: > 100 µM
- TGI [52]: > 100 µM
- TGI [53]: > 100 µM
- TGI [54]: > 100 µM
- TGI [55]: > 100 µM
- TGI [56]: > 100 µM
- TGI [57]: > 100 µM
- TGI [58]: > 100 µM
- TGI [59]: > 100 µM
- TGI [60]: > 100 µM
- TGI [61]: > 100 µM
- TGI [62]: > 100 µM
- TGI [63]: > 100 µM
- TGI [64]: > 100 µM
- TGI [65]: > 100 µM
- TGI [66]: > 100 µM
- TGI [67]: > 100 µM
- TGI [68]: > 100 µM

SMILES: O=C(CC1(O)C(=O)Nc2ccc([N+](=O)[O-])cc21)c1ccc2ccccc2c1 (stereo unspecified)
- TGI [2]: > 100 µM
- TGI [3]: > 100 µM
- TGI [5]: > 100 µM
- TGI [6]: > 100 µM
- TGI [7]: > 100 µM
- TGI [9]: > 100 µM
- TGI [10]: > 100 µM
- TGI [11]: > 100 µM
- TGI [12]: > 100 µM
- TGI [13]: > 100 µM
- TGI [14]: > 100 µM
- TGI [15]: > 100 µM
- TGI [16]: > 100 µM
- TGI [17]: > 100 µM
- TGI [18]: > 100 µM
- TGI [20]: > 100 µM
- TGI [21]: > 100 µM
- TGI [23]: > 100 µM
- TGI [25]: > 100 µM
- TGI [27]: > 100 µM
- TGI [28]: > 100 µM
- TGI [30]: > 100 µM
- TGI [31]: > 100 µM
- TGI [32]: > 100 µM
- TGI [33]: > 100 µM
- TGI [36]: > 100 µM
- TGI [37]: > 100 µM
- TGI [39]: > 100 µM
- TGI [40]: > 100 µM
- TGI [41]: > 100 µM
- TGI [42]: > 100 µM
- TGI [43]: > 100 µM
- TGI [44]: > 100 µM
- TGI [45]: > 100 µM
- TGI [46]: > 100 µM
- TGI [47]: > 100 µM
- TGI [48]: > 100 µM
- TGI [49]: > 100 µM
- TGI [50]: > 100 µM
- TGI [51]: > 100 µM
- TGI [52]: > 100 µM
- TGI [53]: > 100 µM
- TGI [55]: > 100 µM
- TGI [56]: > 100 µM
- TGI [58]: > 100 µM
- TGI [59]: > 100 µM
- TGI [61]: > 100 µM
- TGI [63]: > 100 µM
- TGI [65]: > 100 µM
- TGI [66]: > 100 µM
- TGI [67]: > 100 µM
- TGI [69]: > 100 µM
- TGI [68]: > 100 µM
